Data on ten compounds can be found in US20250034182A1, “PHOSPHOLIPID COMPOUNDS AND METHODS OF MAKING AND USING THE SAME” (priority 2021, published 2025).

Format in all cases: cell-based
Series [1] concerns Respiratory syncytial virus recombinant with luciferase (RSV-Luc5) in NHBE cells. In words: NHBE RSV-Luc5 384-well assay (EC50 RSVFLUC NHBE-384, Example U). The note with it: human respiratory syncytial virus, 72 h, read-out: RSV FLuc NHBE 384 EC50 (v2) (nM) (per Ex. U). The procedure:
Normal Human Bronchial Epithelial (NHBE) cells were purchased from Lonza (Walkersville, MD Cat #CC2540) and maintained in BEGM Bronchial Epithelial Cell (Growth Medium BulletKit (Lonza CC-3170).
Cells were thawed, expanded, and were used for experiments at passage 2. Respiratory syncytial virus recombinant with luciferase (RSV-Luc5) (≥1×10^7 Infectious Units/ml (IU/ml) determined by TCID50) was purchased from Microbiologics (Saint Cloud, MN). Viral replication was determined in NHBE cells in the following manner.
(§1) Compounds are prepared in 100% DMSO in 384-well polypropylene plates (Greiner, Monroe, NC, Cat #784201) with 8 compounds per plate in grouped replicates of 4 at 10 serially diluted concentrations (1:3). The serially diluted compounds were transferred to low dead volume Echo plates (Labcyte, Sunnyvale, CA, Cat #LP-0200).
The test compounds were spotted to 384-well assay plates (Greiner, Monroe, NC, Cat #781091) at 200 nL per well. NHBE cells were harvested and suspended in BEGM Bronchial Epithelial Cell Growth Medium BulletKit and seeded to the pre-spotted assay plates at 5,000 cells per well in 30 μL. RSV-Luc5 virus was diluted in BEGM Bronchial Epithelial Cell Growth Medium BulletKit at 500,000 Infectious Units (IU) per mL and 10 μL per well was added to the assay plates containing cells and compounds, for an MOI of 1. The assay plates were incubated for 3 days at 37° C. and 5% CO2. At the end of incubation, One-Glo reagent (Promega, Madison, WI, Cat #E6120) was prepared. The assay plates and One-Glo reagent were equilibrated to room temperature for at least 15 minutes. 40 μL per well of One-Glo reagent was added and the plates were incubated at room temperature for 15 minutes before reading the luminescence signal on an EnVision multimode plate reader (Perkin Elmer, Waltham, MA). Remdesivir was used as positive control and DMSO was used as negative control. Values were normalized to the positive and negative controls (as 0% and 100% replication, respectively) and data was fitted using non-linear regression analysis by Gilead's dose response tool. The EC50 value for each compound was defined as the concentration reducing the viral replication by 50%.

Series [2] in a line: RSV NHBE CC50 384 V2 (per Ex. U). The conditions noted are these: human.
The subject of series [3] is Respiratory syncytial virus recombinant with luciferase (RSV-Luc5) in HEp-2 cells. Nature of the series: HEp-2 RSV-Luc5 384-well assay (EC50 RSVFLUC Hep2-384 v2, Example V). The conditions noted are these: human respiratory syncytial virus, HEp-2, 72 h, read-out: RSV Hep-2 FLuc EC50 (v2) (nM) (per Ex. V).
Excerpt: HEp-2 cell line was purchased from ATCC (Manassas, VA Cat #CCL-23) and maintained in Dulbecco's […] (DMEM) (Corning, New York, NY, Cat #15-018CM) supplemented with 10% fetal bovine serum (FBS) (Hyclone, Logan, UT, Cat #SH30071-03) and 1× Penicillin-Streptonycin-L-Glutamine (Corning, New York, NY, Cat #30-009-CI). Cells were passaged 2 times per week to maintain sub-confluent densities and were used for experiments at passage 5-20. Respiratory syncytial virus recombinant with luciferase (RSV-Luc5) (≥1×107 TCID50/ml) was purchased from Microbiologics (Saint Cloud, MN). Viral replication was determined in HEp-2 cells in the following manner.
as §1
The test compounds were spotted to 384-well assay plates (Greiner, Monroe, NC, Cat #781091) at 200 nL per well. HEp-2 cells were harvested and suspended in DMEM (supplemented with 10% FBS and 1× Penicillin-Streptomycin-L-Glutamine) and seeded to the pre-spotted assay plates at 4,000 cells per well in 30 μL. RSV-Luc5 viruses were diluted in DMEM (supplemented with 10% FBS and 1× Penicillin-Streptomycin-L-Glucamine) at 200,000 Infectious Units (IU) per mL and 10 μL per well was added to the assay plates containing cells and compounds, for an MOI=0.5. The assay plates were incubated for 3 days at 37° C. and 5% CO2. At the end of incubation, One-Glo reagent (Promega, Madison, WI, Cat #E6120) was prepared. The assay plates and One-Glo reagent were equilibrated to room temperature for at least 15 minutes. 40 μL per well of One-Glo reagent was added and the plates were incubated at room temp for 15 minutes before reading the luminescence signal on an EnVision multimode plate reader (Perkin Elmer, Waltham, MA). Remdesivir was used as positive control and DMSO was used as negative control. Values were normalized to the positive and negative controls (as 0% and 100% replication, respectively) and data was fitted using non-linear regression analysis by Gilead's dose response tool. The EC50 value for each compound was then determined as the concentration reducing the viral replication by 50%.

Series [4] is described as follows: RSV HEP2-CC50-384-V2 (per Ex. V). The note with it: human.

A value given as a limit tells only on which side of the number the result lay.

`CCCCCCCCCCCCCCCCCCOC[C@H](COP(=O)(O)OC[C@@]1(C#N)O[C@@H](c2ccc3c(N)ncnn23)[C@H](O)[C@@H]1O)Oc1ccc(C#N)nc1` [Compound 24]: the EC50 (usually the concentration giving half of the maximal effect) in series [1] amounted to 4 nM. For the same compound, in series [2], the CC50 (as a rule, the concentration at which the toxic effect on the cells reaches its halfway point) at 3 days worked out at 937 nM.
In the case of `CCCCCCCCCCCCCCCCCCC[C@H](COP(=O)(O)OC[C@@]1(C#N)O[C@@H](c2ccc3c(N)ncnn23)[C@H](O)[C@@H]1O)Oc1ccc(C#N)c(F)c1` [Compound 85, ((2R,3S,4R,5S)-5-(4-aminopyrrolo[2,1-f][1,2,4]triazin-7-yl)-2-cyano-3,4-dihydroxytetrahydrofuran-2-yl)methyl ((R)-2-(4-cyano-3-fluorophenoxy)henicosyl) hydrogen phosphate], the values for the EC50 in series [3] and in series [1] were 93 nM and 11 nM, respectively. For the same compound, the CC50 at 3 days is 1440 nM in series [2] and over 50000 nM in series [4].
For `CCCCCCCCCCCCCC[C@@H](COP(=O)(O)OC[C@@]1(C#N)O[C@@H](c2ccc3c(N)ncnn23)[C@H](O)[C@@H]1O)OCc1cc(F)cc(C#N)c1` [Compound 86, ((2R,3S,4R,5S)-5-(4-aminopyrrolo[2,1-f][1,2,4]triazin-7-yl)-2-cyano-3,4-dihydroxytetrahydrofuran-2-yl)methyl ((S)-2-((3-cyano-5-fluorobenzyl)oxy)hexadecyl) hydrogen phosphate] the same measures were 546 nM, 25 nM, 2900 nM and over 50000 nM.
Taken in the same sequence, the figures for `CCCCCCCCCCCCCCCCCC[C@@H](COP(=O)(O)OC[C@@]1(C#N)O[C@@H](c2ccc3c(N)ncnn23)[C@H](O)[C@@H]1O)OCc1cc(Cl)cc(C#N)c1` [Compound 87, ((2R,3S,4R,5S)-5-(4-aminopyrrolo[2,1-f][1,2,4]triazin-7-yl)-2-cyano-3,4-dihydroxytetrahydrofuran-2-yl)methyl ((S)-2-((3-chloro-5-cyanobenzyl)oxy)icosyl) hydrogen phosphate] were 443 nM, 133 nM, 3450 nM and over 34800 nM.
Taken in the same sequence, the figures for `CCCCCCCCCCCCCCCCOC[C@@H](COP(=O)(O)OC[C@@]1(C#N)O[C@@H](c2ccc3c(N)ncnn23)[C@H](O)[C@@H]1O)OCc1ccccc1` [Compound 92, ((2R,3S,4R,5S)-5-(4-aminopyrrolo[2,1-f][1,2,4]triazin-7-yl)-2-cyano-3,4-dihydroxytetrahydrofuran-2-yl)methyl ((S)-2-(benzyloxy)-3-(hexadecyloxy)propyl) hydrogen phosphate] were 194 nM, 47 nM, 9560 nM and over 50000 nM.
For `CCCCCCCCCCCCCCCCCC[C@@H](COP(=O)(O)OC[C@@]1(C#N)O[C@@H](c2ccc3c(N)ncnn23)[C@H](O)[C@@H]1O)OCc1ccccc1` [Compound 93, ((2R,3S,4R,5S)-5-(4-aminopyrrolo[2,1-f][1,2,4]triazin-7-yl)-2-cyano-3,4-dihydroxytetrahydrofuran-2-yl)methyl ((S)-2-(benzyloxy)icosyl) hydrogen phosphate], the half-maximal effective concentration (EC50) in series [3] came to 3060 nM; in series [1], 663 nM. In addition, the CC50 at 3 days was 8140 nM in series [2] and over 50000 nM in series [4].
For `CCCCCCCCCCCCCCCCCCOC[C@](C)(COP(=O)(O)OC[C@@]1(C#N)O[C@@H](c2ccc3c(N)ncnn23)[C@H](O)[C@@H]1O)OCc1cc(F)cc(C#N)c1` [Compound 94, ((2R,3S,4R,5S)-5-(4-aminopyrrolo[2,1-f][1,2,4]triazin-7-yl)-2-cyano-3,4-dihydroxytetrahydrofuran-2-yl)methyl ((R)-2-((3-cyano-5-fluorobenzyl)oxy)-2-methyl-3-(octadecyloxy)propyl) hydrogen phosphate] the same measures were 339 nM, 59 nM, 16000 nM and over 50000 nM.
Taken in the same sequence, the figures for `CCCCCCCCCCCCCCCCCC[C@@H](COP(=O)(O)OC[C@@]1(C#N)O[C@@H](c2ccc3c(N)ncnn23)[C@H](O)[C@@H]1O)Oc1cc(F)cc(C#N)c1` [Compound 96, ((2R,3S,4R,5S)-5-(4-aminopyrrolo[2,1-f][1,2,4]triazin-7-yl)-2-cyano-3,4-dihydroxytetrahydrofuran-2-yl)methyl ((S)-2-(3-cyano-5-fluorophenoxy)icosyl) hydrogen phosphate] were 368 nM, 67 nM, 5240 nM and over 38100 nM.
As for `CCCCCCCCCCCCC[C@@H](COP(=O)(O)OC[C@@]1(C#N)O[C@@H](c2ccc3c(N)ncnn23)[C@H](O)[C@@H]1O)OCc1cc(F)cc(C#N)c1` [Compound 97, ((2R,3S,4R,5S)-5-(4-aminopyrrolo[2,1-f][1,2,4]triazin-7-yl)-2-cyano-3,4-dihydroxytetrahydrofuran-2-yl)methyl ((S)-2-((3-cyano-5-fluorobenzyl)oxy)pentadecyl) hydrogen phosphate], the EC50 in series [3] worked out at 1490 nM; in series [1] it was 45 nM. The CC50 at 3 days was 3910 nM in series [2] (NHBE cells, 384-well, read-out: RSV NHBE CC50 384 V2 (nM) (per Ex. U)) and over 43900 nM in series [4] (HEp-2 cells, 384-well, read-out: RSV HEP2-CC50-384-V2 (nM) (per Ex. V)).
Turning to `CCCCCCCCCCCCCCCCOC[C@@H](COP(=O)(O)OC[C@@]1(C#N)O[C@@H](c2ccc3c(N)ncnn23)[C@H](O)[C@@H]1O)OCc1cc(Cl)cc(C#N)c1` [Compound 98, ((2R,3S,4R,5S)-5-(4-aminopyrrolo[2,1-f][1,2,4]triazin-7-yl)-2-cyano-3,4-dihydroxytetrahydrofuran-2-yl)methyl ((S)-2-((3-chloro-5-cyanobenzyl)oxy)-3-(hexadecyloxy)propyl) hydrogen phosphate], the EC50 in series [3] was 34 nM; in series [1] it was 11 nM. The CC50 at 3 days in series [2] worked out at 2900 nM.
